According to patent US20160008376A1, “Compositions, Methods and Uses for Treating Gender-Biased Immune Disorders” (Biocopea Limited, priority 2014, published 2016):

Test system: antibodies directed to the CH47 region of the P1/P2 ribosomal protein
Test: Hormone added to sera of immunized female mice, antibody signal for the CH47 peptide
Format: binding
Conditions: overall
Protocol: In a second series of experiments, Testosterone (0 ng/mL, 0.5 ng/mL, 1 ng/mL, 2 ng/mL, and 4 ng/mL) or Progesterone (0 ng/mL, 2 ng/mL, 4 ng/mL, 8 ng/mL, and 14 ng/mL) was added to the sera of female mice immunized with a variety of different Chagas peptides (Formulation 1 or 2) that either include (B) or excluded (A) specifically peptide CH47. […] At low hormone concentrations there was an increase in the antibody signal with a subsequent decrease as the concentration of hormone further increased.

Compound | decrease in the IgG response (hormone 0-14 ng/mL) [%] | decrease in the antibody response (hormone 0-4 ng/mL) [%]
CC(=O)[C@H]1CC[C@H]2[C@@H]3CCC4=CC(=O)CC[C@]4(C)[C@H]3CC[C@]12C [Progesterone, pregn-4-ene-3,20-dione] | 26.2 | –
C[C@]12CC[C@H]3[C@@H](CCC4=CC(=O)CC[C@@]43C)[C@@H]1CC[C@@H]2O [Testosterone] | – | 24.4
